Data set [1] is described as follows: logP determination by HPLC on reversed-phase column (C18), EEC Directive 79/831 Annex V.A8. Conditions: pH 2.3, HPLC reversed-phase C18, 43° C., 0.1% aqueous phosphoric acid/acetonitrile. Format: physicochemical. The protocol:
The logP values stated in the above tables and preparation examples are determined as described in EEC Directive 79/831 Annex V.A8 by means of HPLC (high performance liquid chromatography) on a reversed-phase column (C18). Temperature: 43° C. The determination is effected in the acidic range at pH 2.3 using 0.1% aqueous phosphoric acid and acetonitrile as eluents; linear gradient from 10% acetonitrile to 90% acetonitrile. The calibration is effected with unbranched alkan-2-ones (having 3 to 16 carbon atoms) whose logP values are known (determination of the logP values with reference to the retention times by linear interpolation between two successive alkanones).

The test system of data set [2] is Erysiphe graminis fsp. hordei. In words: Erysiphe test (barley)/protective. As to conditions: protective spray, application rate 1000 ppm, evaluated 7 days after inoculation. Format: in vivo. The protocol: Erysiphe Test (Barley)/Protective To prepare an expedient active compound preparation, 1 part by weight of active compound is mixed with the stated amounts of solvent and emulsifier, and the concentrate is diluted to the desired concentration with water. To test for protective activity, young plants are sprayed with the active compound preparation at the application rate stated. After the spray coating has dried on, the plants are dusted with spores of Erysiphe graminis fsp. hordei. The plants are placed in a greenhouse at a temperature of approximately 20° C. and a relative atmospheric humidity of approximately 80% to favour the development of mildew pustules. The test is evaluated 7 days after the inoculation. 0% means an efficacy which corresponds to that of the control, while an efficacy of 100% means that no disease is observed.

The next data set relates to Pyrenophora teres. In words: Pyrenophora teres test (barley)/protective. The class given is in vivo. Conditions: protective spray, application rate 1000 ppm, evaluated 8 days after inoculation. On the procedure: Pyrenophora teres Test (Barley)/Protective To prepare an expedient active compound preparation, 1 part by weight of active compound is mixed with the stated amounts of solvent and emulsifier, and the concentrate is diluted to the desired concentration with water. To test for protective activity, young plants are sprayed with the active compound preparation at the application rate stated. After the spray coating has dried on, the plants are sprayed with a conidial suspension of Pyrenophora teres. The plants remain in an incubation cabinet for 48 hours at 20° C. and 100% relative atmospheric humidity. The plants are then placed into a greenhouse at a temperature of approximately 20° C. and a relative atmospheric humidity of approximately 80%. The test is evaluated 8 days after the inoculation. 0% means an efficacy which corresponds to that of the control, while an efficacy of 100% means that no disease is observed.

For the next data set, the system named is Leptosphaeria nodorum. In words: Leptosphaeria nodorum test (wheat)/protective. The class given is in vivo. As to conditions: protective spray, application rate 1000 ppm, evaluated 10 days after inoculation. On the procedure:
Leptosphaeria nodorum Test (Wheat)/Protective To prepare an expedient active compound preparation, 1 part by weight of active compound is mixed with the stated amounts of solvent and emulsifier, and the concentrate is diluted to the desired concentration with water. To test for protective activity, young plants are sprayed with the active compound preparation at the application rate stated. After the spray coating has dried on, the plants are sprayed with a spore suspension of Leptosphaeria nodorum. The plants remain in an incubation cabinet for 48 hours at 20° C. and 100% relative atmospheric humidity. The plants are then placed into a greenhouse at a temperature of approximately 15° C. and a relative atmospheric humidity of approximately 80%. The test is evaluated 10 days after the inoculation. 0% means an efficacy which corresponds to that of the control, while an efficacy of 100% means that no disease is observed.

The subject of the next data set is Botrytis cinerea. In words: Botrytis test (bean)/protective. The class given is in vivo. As to conditions: protective spray, application rate 100 ppm, lesion size evaluated 2 days after inoculation. On the procedure:
[table] To prepare an expedient active compound preparation, 1 part by weight of active compound is mixed with the stated amounts of solvent and emulsifier, and the concentrate is diluted to the desired concentration with water. To test for protective activity, young plants are sprayed with the active compound preparation at the application rate stated. After the spray coating has dried on, 2 small agar blocks which sustain the growth of Botrytis cinerea are placed on each leaf. The inoculated plants are placed in a darkened chamber at approximately 20° C. and 100% relative atmospheric humidity. 2 days after the inoculation, the size of the lesions on the leaves is evaluated. 0% means an efficacy which corresponds to that of the control, while an efficacy of 100% means that no disease is observed.

Molecules are shown by their SMILES.

The term chromatographic logP denotes lipophilicity estimated from chromatographic retention. Low readings indicate lower lipophilicity, high ones higher lipophilicity. For the compound `Cn1cc(C(=O)Nc2ccc(F)cc2-c2ccc(Cl)c(F)c2)c(C(F)(F)F)n1` [N-(4′-chloro-5,3′-difluorobiphenyl-2-yl)-1-methyl-3-trifluoromethyl-1H-pyrazole-4-carboxamide], the chromatographic logP in data set [1] was determined as 3.26.

In the case of `Cn1cc(C(=O)Nc2cc(F)ccc2-c2ccc(F)c(Cl)c2)c(C(F)F)n1` [drawing 20, reference compound], the Efficacy in % in data set [2] is listed as 33%.

`Cn1cc(C(=O)Nc2ccc(F)cc2-c2ccc(Cl)c(F)c2)c(C(F)F)n1` [drawing 19] returned an Efficacy in % with Pyrenophora teres of 100%.

For `Cn1cc(C(=O)Nc2ccc(F)cc2-c2ccc(Cl)c(F)c2)c(C(F)F)n1` [drawing 23], the Efficacy in % in the data set on Leptosphaeria nodorum is given as 84%.

`Cn1cc(C(=O)Nc2ccc(F)cc2-c2ccc(Cl)c(F)c2)c(C(F)F)n1` [drawing 17] displayed an Efficacy in % with Botrytis cinerea of 100%.

As to `Cn1cc(C(=O)Nc2ccc(F)cc2-c2ccc(F)c(Cl)c2)c(C(F)F)n1`, the Efficacy in % in the data set with Botrytis cinerea came out at 87%.

In turn, `Cc1ccc(-c2cc(F)ccc2N)cc1F` [Example (III-2), 5,3′-difluoro-4′-methylbiphenyl-2-ylamine] came in with a chromatographic logP in data set [1] of 2.94.

With `Cc1ccc(-c2cc(F)ccc2NC(=O)c2cn(C)nc2C(F)F)cc1F` [N-(5,3′-difluoro-4′-methylbiphenyl-2-yl)-3-difluoromethyl-1-methyl-1H-pyrazole-4-carboxamide], the chromatographic logP in data set [1] was 3.05.

Consider `Cn1cc(C(=O)Nc2cc(F)ccc2-c2ccc(F)c(Cl)c2)c(C(F)F)n1` [drawing 22, reference compound], for which the Efficacy in % in the data set on Leptosphaeria nodorum is given as 0%.

On to `Cn1cc(C(=O)Nc2cc(F)ccc2-c2ccc(F)c(Cl)c2)c(C(F)F)n1` [drawing 18, reference compound], for which the Efficacy in % in the data set with Pyrenophora teres worked out at 93%.

With `Cc1ccc(-c2cc(F)ccc2NC(=O)c2cn(C)nc2C(F)(F)F)cc1F` [N-(5,3′-difluoro-4′-methylbiphenyl-2-yl)-1-methyl-3-trifluoromethyl-1H-pyrazole-4-carboxamide], the chromatographic logP in data set [1] worked out at 3.27.

`Cn1cc(C(=O)Nc2ccc(F)cc2-c2ccc(Cl)c(F)c2)c(C(F)F)n1` [Example 1, N-(4′-chloro-3′,5-difluorobiphenyl-2-yl)-3-(difluoromethyl)-1-methyl-1H-pyrazole-4-carboxamide]: the chromatographic logP in data set [1] came to 3.05.

As for `Cn1cc(C(=O)Nc2ccc(F)cc2-c2ccc(Cl)c(F)c2)c(C(F)F)n1` [drawing 21], the Efficacy in % in data set [2] was 78%.

For the compound `Cn1cc(C(=O)Nc2cc(F)ccc2-c2ccc(F)c(Cl)c2)c(C(F)F)n1` [drawing 15, reference compound], in the data set with Botrytis cinerea, the Efficacy in % was found to be 52%.

The values above are taken from US8580971B2, “Alkyl-analide producing method” (Bayer CropScience AG, priority 2005, dated 2013).
